From PMC4467156, “A new chemical inhibitor of angiogenesis and tumorigenesis that targets the VEGF signaling pathway upstream of Ras” (Oncotarget, 2015)

Legend:
PKCβII = PKCβII (Homo sapiens, UniProt P05771); test: In vitro kinase assay PKCβII; format: biochemical; settings: concentrations up to 50 μM
Method: (§1) We first wondered whether COB223 required to be internalized to exert its biological effect. For this, we synthesized a covalent complex between BSA and COB223 and purified it. […] In vitro kinase assays were performed with a panel of purified protein-kinases involved in mitogenic signaling, including VEGFR2, FGFR1, FGFR2, PDGFRß, Met, Raf, MEK1, ERK1, ERK2, PKCα, PKCβI, PKCβII, PKCζ as indicated in Table 2. […] We then analyzed the effect of COB223 on VEGF-induced phosphorylations of VEGFR2, MEK and ERK1/2 (Figure 9). […] (Figure 9A, 9B). […] It was also specific of the p42/p44 MAP kinase pathway as activation of p38 MAP kinase phosphorylation in HUVEC cells by VEGF or serum was unaffected by COB223 (data not shown). The activation of src phosphorylation by VEGF in HUVECs was also unaffected by COB223 (data not shown).

src phosphorylation = src phosphorylation in HUVECs; format: cell-based, human; settings: data not shown
HUVEC cells [1] = test: Scratch assay on HUVEC with or without mitomycin C; format: cell-based, human; settings: HUVEC, 25 μM COB223, mitomycin C 2 μg/mL pretreatment, 24 h and 48 h
Method: Confluent cell monolayers were wounded with a plastic pipet tip, washed gently with phosphate buffer saline (PBS) and treated with complete media containing molecules, as indicated. Cells were placed at 37°C into the incubator and photographed at indicated times. Quantitation of closure of the monolayer was performed using the NIH Image J program (http://rsbweb.nih.gov/ij/). Results are expressed as percentage of wound closure at t = 24 h as compared to the initial wound at t = 0 h. […]
www.impactjournals.com/oncotarget/ Oncotarget, Supplementary Materials 2015 […]
Figure S1: Effect of COB223 on endothelial cell migration. (A) Scratch assay: Confluent HUVEC cells were pretreated for 24 h without (CTL) or with 2 μg/mL of mitomycin C before a wound was made in the cell monolayer. After wounding, cells were incubated at 37°C in the absence or the presence of 25 μM COB223. Wound closure was measured after 24 h and 48 h of incubation as described in Material and Methods. […]
(B) Boyden chamber assay: The technique is described in Material and Methods. We measured the passage of fluorescently labeled HUVEC cells through a 3 μm-porous membrane in response to fetal calf serum used as a chemo-attractant. […] The Figure represents the mean fluorescence ± SD of duplicate determinations after 24 h or 48h of incubation from two independent experiments. […]

LLC/2 cells = test: Cell viability WST-1, LLC/2; format: cell-based; settings: confluent LLC/2, 24 h at 37°C
Method: (§2) Once they had reached confluency, cells were kept for 24 hours in medium supplemented with 0.5% FCS (LLC/2 and 3T3 cells) or 2.5% FCS (HUVEC and HMVEC-d cells), in the presence of COB223 at different concentrations. WST-1 assay (Roche Diagnostic, Meylan, France) was then performed according to the manufacturer's instructions.

PKCβI = PKCβI (Homo sapiens, UniProt P05771); test: In vitro kinase assay PKCβI; format: biochemical; settings: concentrations up to 50 μM
Chain of PKCβI (P05771 whole entry): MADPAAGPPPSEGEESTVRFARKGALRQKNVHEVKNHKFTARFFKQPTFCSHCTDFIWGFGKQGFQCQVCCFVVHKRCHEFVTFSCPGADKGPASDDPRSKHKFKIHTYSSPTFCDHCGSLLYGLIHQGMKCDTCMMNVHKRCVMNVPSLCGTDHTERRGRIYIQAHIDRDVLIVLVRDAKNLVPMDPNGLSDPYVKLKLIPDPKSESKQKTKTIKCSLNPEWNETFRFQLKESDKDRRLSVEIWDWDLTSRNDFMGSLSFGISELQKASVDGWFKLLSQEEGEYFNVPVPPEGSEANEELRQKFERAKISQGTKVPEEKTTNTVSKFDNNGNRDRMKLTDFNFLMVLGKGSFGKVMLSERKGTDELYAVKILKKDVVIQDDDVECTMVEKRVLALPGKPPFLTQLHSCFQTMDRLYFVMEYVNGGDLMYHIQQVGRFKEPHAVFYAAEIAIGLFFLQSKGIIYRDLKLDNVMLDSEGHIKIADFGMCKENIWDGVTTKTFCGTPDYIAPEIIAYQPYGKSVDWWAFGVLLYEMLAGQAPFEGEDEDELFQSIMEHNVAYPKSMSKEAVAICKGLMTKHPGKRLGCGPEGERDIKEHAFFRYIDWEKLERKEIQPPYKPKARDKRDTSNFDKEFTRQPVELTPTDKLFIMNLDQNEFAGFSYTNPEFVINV
Method: as §1

HUVEC cells [2] = test: 3H-thymidine incorporation, HUVEC; format: cell-based, human; settings: HUVEC, 24 h
Method: (§3) Cells were treated with molecules in complete medium. After 22 h, 1 μCi per well H^3 thymidine was added for 2 hours. Cells are then fixed by 10% trichloroacetic acid and harvested with 0.2N NaOH, 1% SDS. Radioactivity was measured in a beta counter.

3T3-GFP cells = test: Scratch wound closure assay, 3T3-GFP; format: cell-based; settings: wound closure after 24 h, 10% FCS, tested 3.125 μM to 100 μM
Excerpt: Using this assay, we screened the academic library of the University of Grenoble, which is composed of 1360 original molecules. Setting the threshold of significant responses at 75% of the maximal inhibition, we identified 80 inhibitory molecules. At this stage, we reasoned that molecules that would affect the cytoskeleton dynamics or the adhesion properties of any cell type would be positive in this assay but would not represent good candidates for further development. We thus decided to perform a secondary counterscreen of the first 80 selected compounds on GFP-expressing 3T3 fibroblasts (3T3-GFP) using the same scratch assay. We then focused our interest on the 5 molecules that inhibited more strongly HMEC-GFP than 3T3-GFP wound healing. […] We synthesized a series of 30 analogs and tested them at various concentrations both on HMEC-GFP and 3T3-GFP cells. […] Dansyl and naphthalimide aromatic groups, found in COB223 and COB227 respectively, appeared very efficient. The presence of the diaminomethyl group on dansyl is critical for the activity of COB223 as shown by the lower efficiency of COB235 (IC50 is 8 times higher than that of COB223). COB223 and COB227 contain a tert-butyloxycarbonyl function (BOC group) as a second hydrophobic group. Replacement of BOC by an amino group decreased the efficiency and the specificity (compare 05-102-L-B09 vs 05-06-L-D03, or COB227 vs COB228).
Confluent cell monolayers were wounded with a plastic pipet tip, washed gently with phosphate buffer saline (PBS) and treated with complete media containing molecules, as indicated. Cells were placed at 37°C into the incubator and photographed at indicated times. Quantitation of closure of the monolayer was performed using the NIH Image J program (http://rsbweb.nih.gov/ij/). Results are expressed as percentage of wound closure at t = 24 h as compared to the initial wound at t = 0 h.

3T3 cells [3] = test: 3H-thymidine incorporation, 3T3; format: cell-based; settings: 3T3 fibroblasts
Method: as §3

3T3 cells [4] = test: Cell viability WST-1, 3T3; format: cell-based; settings: confluent 3T3, 24 h at 37°C
Method: as §2

Chain of PKCβII (P05771 1-673 isoform P05771-2): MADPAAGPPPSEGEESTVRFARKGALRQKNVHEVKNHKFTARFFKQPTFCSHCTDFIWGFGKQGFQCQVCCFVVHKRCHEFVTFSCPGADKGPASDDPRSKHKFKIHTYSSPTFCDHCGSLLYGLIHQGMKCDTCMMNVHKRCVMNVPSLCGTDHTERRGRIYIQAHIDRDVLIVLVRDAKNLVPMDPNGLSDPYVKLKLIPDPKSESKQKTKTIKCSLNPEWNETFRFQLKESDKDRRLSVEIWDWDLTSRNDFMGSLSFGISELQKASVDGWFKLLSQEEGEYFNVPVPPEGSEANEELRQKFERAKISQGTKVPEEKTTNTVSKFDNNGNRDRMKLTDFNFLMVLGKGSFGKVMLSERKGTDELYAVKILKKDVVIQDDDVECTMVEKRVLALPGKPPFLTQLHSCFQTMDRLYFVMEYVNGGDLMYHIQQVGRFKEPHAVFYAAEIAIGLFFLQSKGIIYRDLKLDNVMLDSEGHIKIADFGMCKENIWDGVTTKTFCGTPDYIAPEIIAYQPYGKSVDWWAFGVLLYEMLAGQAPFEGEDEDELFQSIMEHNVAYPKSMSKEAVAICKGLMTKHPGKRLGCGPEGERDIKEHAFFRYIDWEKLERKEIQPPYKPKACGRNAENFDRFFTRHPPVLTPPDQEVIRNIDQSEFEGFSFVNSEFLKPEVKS

CN(C)c1cccc2c(S(=O)(=O)NCCCN3CCN(CCCNC(=O)OC(C)(C)C)CC3)cccc12 [COB223, tert-Butyl 3-(4-(3-(5-(dimethylamino)naphthalene-1-sulfonamido)propyl)piperazin-1-yl) propylcarbamate]
kinase inhibition (PKCβII): None of them was inhibited
activation of src phosphorylation by VEGF (src phosphorylation): unaffected
endothelial cell wound closure in the presence of mitomycin C (HUVEC cells [1]): still inhibited
cytotoxic concentrations (LLC/2 cells): > 50 µM
kinase inhibition (PKCβI): None of them was inhibited
concentrations inhibiting thymidine incorporation (HUVEC cells [2]): above 5 μM
IC50 (3T3-GFP cells): 25 µM
effect on cell proliferation (3T3 cells [3]): no effect
cytotoxic concentrations (3T3 cells [4]): > 50 µM
